Bounds are passed on as bounds.

These results are taken from patent US8394825B2, “Compound” (Sterix Limited, priority 2007, dated 2013).

For series [1], the target named is T1, E1-STS (Homo sapiens, UniProt P08842).
T1 sequence (P08842 22-583): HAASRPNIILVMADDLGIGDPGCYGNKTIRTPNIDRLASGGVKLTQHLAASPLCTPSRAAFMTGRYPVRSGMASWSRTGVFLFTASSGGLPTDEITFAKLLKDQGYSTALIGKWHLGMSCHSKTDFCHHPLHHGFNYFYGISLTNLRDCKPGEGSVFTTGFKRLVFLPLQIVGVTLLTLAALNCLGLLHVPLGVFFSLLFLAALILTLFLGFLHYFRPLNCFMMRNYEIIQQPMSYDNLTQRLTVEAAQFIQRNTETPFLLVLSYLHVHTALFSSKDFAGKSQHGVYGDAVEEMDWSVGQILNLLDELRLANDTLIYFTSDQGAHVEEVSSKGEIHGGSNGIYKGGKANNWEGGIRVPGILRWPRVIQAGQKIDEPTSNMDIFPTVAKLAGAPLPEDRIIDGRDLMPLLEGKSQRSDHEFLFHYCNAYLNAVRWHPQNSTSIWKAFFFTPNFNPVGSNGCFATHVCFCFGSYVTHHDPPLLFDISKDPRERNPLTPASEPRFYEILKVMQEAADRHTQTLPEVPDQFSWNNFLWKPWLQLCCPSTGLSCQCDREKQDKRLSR
The conditions noted are these: cited from earlier work.

In another series the test system is uterotrophic activity. The conditions noted are these: cited from earlier work; for oestrogenicity: rat, in vivo.
For series [2] the following is noted: cited from earlier work.
Series [3] deals with T1, E1-STS. Details: endogenous in cells; host or cells: MCF-7 cells (intact). The conditions noted are these: intact MCF-7 cells, 0.1 nM; cited from earlier work.
In another series the test system is DU145 cells. In words: Antiproliferative assay in DU145 cells, WST-1 cell proliferation assay, 96 hours (GI50). The class given is cell-based. The conditions noted are these: Homo sapiens, DU-145, 96 hours post-treatment. The method in brief:
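DU145 cells seeded at 5000 cells/well, treated with […] compound or vehicle for 96 h. Viability read by WST-1, expressed as percent of mean control, GI50 derived; triplicate experiments.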
(In general: Tetrazolium assays rely on reduction of a dye to a coloured formazan, in cell work by metabolically active cells.)

For `COc1cc2c(cc1OS(N)(=O)=O)CC[C@@H]1[C@@H]2CC[C@]2(C)C(=O)CC[C@@H]12` [2-methoxyoestrone-3-O-sulphamate], the “potency as steroid sulphatase inhibitor relative to EMATE” value on E1-STS [1] is listed as “equipotent with EMATE”. Further, the oestrogenicity result with uterotrophic activity was “devoid of oestrogenicity”.
For the compound `C[C@]12CC[C@@H]3c4ccc(OS(=O)(=O)O)cc4CC[C@H]3[C@@H]1CCC2=O` [E1S, oestrone sulphate], in series [2], the half-life in blood is 10 to 12 h.
For the compound `CC12CCC3c4ccc(OS(N)(=O)=O)cc4CCC3C1CCC2=O` (stereo not drawn) [EMATE, oestrone-3-sulphamate], on E1-STS [1], the “mode of E1-STS enzyme inhibition (inactivation)” value (shortened to “mode of E1-STS enzyme inhibition”) was “time- and concentration-dependent manner”. Also, the oestrogenicity result in the series on uterotrophic activity was “potent oestrogenic properties”. Also, the “oral uterotrophic activity relative to estradiol” value in the series on uterotrophic activity (rats, oral) is given as 100 times. At E1-STS [3], the “inhibition of E1-STS activity” value is given as “more than 99%”.
A word on the melting point: it is the temperature of the solid-liquid transition. In general, GI50 refers to the concentration giving 50% growth inhibition. Low values mean greater sensitivity of the cells, high ones lower sensitivity of the cells. Turning to `COc1cc2c(cc1O)CCN(S(=O)(=O)c1cccc(C#N)c1)C2` [compound 186, 2-(3-Cyano-benzenesulfonyl)-6-hydroxy-7-methoxy-1,2,3,4-tetrahydroisoquinoline], the melting point was in the range of 204 to 206 °C. The compound also returned a GI50 with DU145 cells (triplicate) of over 100 µM.
On the same counts, the results for `COc1cc2c(cc1OCc1ccccc1)CCN(S(=O)(=O)c1ccccc1OC)C2=O` [compound 197, 6-Benzyloxy-7-methoxy-2-(2-methoxy-benzenesulfonyl)-3,4-dihydro-2H-isoquinolin-1-one] are 202 to 203 °C and over 100 µM.
On the same counts, the results for `COc1cc2c(cc1OCc1ccccc1)CCN(S(=O)(=O)c1cccc(Cl)c1)C2=O` [compound 199, 6-Benzyloxy-2-(3-chloro-benzenesulfonyl)-7-methoxy-3,4-dihydro-2H-isoquinolin-1-one] are 155 to 158 °C and over 100 µM.
In turn, `COc1cc2c(cc1O)CCN(S(=O)(=O)c1ccccc1OC)C2=O` [compound 200, 6-Hydroxy-7-methoxy-2-(2-methoxy-benzenesulfonyl)-3,4-dihydro-2H-isoquinolin-1-one] returned a melting point of 222 to 224 °C. Further, in the series with DU145 cells (triplicate), the GI50 is over 100 µM.
On the same counts, the results for `COc1cccc(S(=O)(=O)N2CCc3cc(O)c(OC)cc3C2=O)c1` [compound 201, 6-Hydroxy-7-methoxy-2-(3-methoxy-benzenesulfonyl)-3,4-dihydro-2H-isoquinolin-1-one] are 195 to 197 °C and over 100 µM.
For `COc1ccc(S(=O)(=O)N2CCc3cc(O)c(OC)cc3C2=O)cc1` [compound 202, 6-Hydroxy-7-methoxy-2-(4-methoxy-benzenesulfonyl)-3,4-dihydro-2H-isoquinolin-1-one], the melting point fell in the range of 202 to 204 °C. The compound also displayed a concentration for 50% growth inhibition (GI50) with DU145 cells (triplicate) of over 100 µM.
`COc1cc2c(cc1O)CCN(S(=O)(=O)c1cccc(Cl)c1)C2=O` [compound 203, 2-(3-Chloro-benzenesulfonyl)-6-hydroxy-7-methoxy-3,4-dihydro-2H-isoquinolin-1-one] came in with a melting point of 178 to 181 °C. Moreover, in the series with DU145 cells (50% growth inhibition), the GI50 was over 100 µM.
On the same counts, the results for `COc1cccc(CN2Cc3cc(OC)c(O)cc3CC2C)c1` (stereo not drawn) [compound 217, 2-(3-Methoxybenzyl)-1,2,3,4-tetrahydro-7-methoxy-3-methylisoquinolin-6-ol] are 100 to 105 °C and under 10 µM.
`COc1cc(CN2Cc3cc(OC)c(O)cc3CC2C)cc(OC)c1` (stereo not drawn) [compound 218, 2-(3,5-Dimethoxybenzyl)-1,2,3,4-tetrahydro-7-methoxy-3-methylisoquinolin-6-ol] displayed a melting point of 155 to 158 °C. In the series with DU145 cells (50% growth inhibition), this compound yielded a GI50 of 10 to 50 µM.
On the same counts, the results for `COc1cc2c(cc1O)CC(C)(C)N(C(=O)c1cc(OC)c(OC)c(OC)c1)C2` [compound 234, (6-Hydroxy-7-methoxy-3,3-dimethyl-3,4-dihydro-1H-isoquinolin-2-yl)-(3,4,5-trimethoxy-phenyl)-methanone] are 159 to 162 °C and over 100 µM.
On the same counts, the results for `COc1cc2c(cc1OS(N)(=O)=O)CC(C)(C)N(C(=O)c1cc(OC)c(OC)c(OC)c1)C2` [compound 236, Sulfamic acid 7-methoxy-3,3-dimethyl-2-(3,4,5-trimethoxy-benzoyl)-1,2,3,4-tetrahydro-isoquinolin-6-yl ester] are 172 to 176 °C and over 100 µM.
On the same counts, the results for `COc1cc(OC)cc(C(=O)N2Cc3cc(OC)c(OS(N)(=O)=O)cc3CC2(C)C)c1` [compound 237, Sulfamic acid 2-(3,5-dimethoxy-benzoyl)-7-methoxy-3,3-dimethyl-1,2,3,4-tetrahydro-isoquinolin-6-yl ester] are > 180 °C (dec.) and over 100 µM.
With oestrone-3-N-sulphamate, the “mode of E1-STS enzyme inhibition” value on E1-STS [1] is recorded as “weaker non-time-dependent inactivators”.
For the compound oestrone-3-S-sulphamate, the “mode of E1-STS enzyme inhibition” value at E1-STS [1] is recorded as “weaker non-time-dependent inactivators”.
